Data set [1] addresses T1, topoisomerase I (Homo sapiens, UniProt P11387).
T1 sequence (P11387 1-765): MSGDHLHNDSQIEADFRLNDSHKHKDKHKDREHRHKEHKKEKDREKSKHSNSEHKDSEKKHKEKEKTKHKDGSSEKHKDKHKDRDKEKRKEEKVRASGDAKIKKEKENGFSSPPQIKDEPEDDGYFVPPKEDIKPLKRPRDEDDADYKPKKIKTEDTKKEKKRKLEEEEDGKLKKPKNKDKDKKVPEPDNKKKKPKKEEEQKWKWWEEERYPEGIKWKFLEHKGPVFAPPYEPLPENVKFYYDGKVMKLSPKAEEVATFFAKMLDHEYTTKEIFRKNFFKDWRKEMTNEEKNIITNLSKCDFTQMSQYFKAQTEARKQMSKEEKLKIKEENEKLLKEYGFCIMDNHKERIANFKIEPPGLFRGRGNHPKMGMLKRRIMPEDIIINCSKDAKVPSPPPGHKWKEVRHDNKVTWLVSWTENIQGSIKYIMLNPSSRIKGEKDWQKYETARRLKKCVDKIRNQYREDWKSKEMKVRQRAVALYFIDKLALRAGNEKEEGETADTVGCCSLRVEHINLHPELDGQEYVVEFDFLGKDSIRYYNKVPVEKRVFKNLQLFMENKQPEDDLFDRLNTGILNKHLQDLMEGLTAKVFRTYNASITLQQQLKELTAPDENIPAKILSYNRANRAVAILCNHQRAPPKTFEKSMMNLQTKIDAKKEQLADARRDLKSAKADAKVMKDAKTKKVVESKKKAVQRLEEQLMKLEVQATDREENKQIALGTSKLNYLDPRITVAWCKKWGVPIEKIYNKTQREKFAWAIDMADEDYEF
Kind of data set: Topoisomerase I-mediated DNA cleavage assay (3'-end-labeled 161 bp pBluescript SK(-) fragment). The format is biochemical. To be noted: relative to the activity of 1 μM camptothecin. As for the experimental part: Topoisomerase I-Mediated DNA Cleavage Reactions Using 3′-End-labeled 161 BP Plasmid DNA
The 161 bp fragment from pBluescript SK(−) phagemid DNA (Stratagene, La Jolla, Calif.) was cleaved with the restriction endonuclease Pvu II and Hind III (New England Biolabs, Beverly, Mass.) in supplied NE buffer 2 (10 μL reactions) for 1 h at 37° C., separated by electrophoresis in a 1% agarose gel made in 1×TBE buffer. The 161 bp fragment was eluted from the gel slice (centrilutor by Amicon) and concentrated in a centricon 50 centrifugal concentrator (Amicon, Beverly, Mass.). Approximately 200 ng of the fragment was 3′-end-labeled at the Hind III site by fill-in reaction with [alpha-^32P]-dCTP and 0.5 mM dATP, dGTP, and dTTP, in React 2 buffer (50 mM Tris-HCl, pH 8.0, […], 50 mM NaCl) with 0.5 units of DNA polymerase I (Klenow fragment). Labeling reactions were followed by phenol-chloroform extraction and ethanol precipitation. The resulting 161 bp 3′-endlabeled DNA fragment was resuspended in water. Aliquots (approximately 50,000 dpm/reaction) were incubated with topoisomerase I at 30° C. for 15 min in the presence of the indicated drug. Reactions were terminated by adding 0.5% SDS. After ethanol precipitation, the samples were resuspended in loading buffer (80% formamide, 10 mM sodium hydroxide, 1 mM sodium EDTA, 0.1% xylene cyanol, and 0.1% bromophenol blue, pH 8.0), and separated in a denaturing gel (16% polyacrylamide, 7 M urea) run at 51° C. The gel was dried and visualized by using a Phosphoimager and ImageQuant software (Molecular Dynamics, Sunnyvale, Calif.).

Data set [2] has as its system SF-539. Kind of data set: NCI human cancer cell line screen (COMPARE screening), CNS SF-539. In kind it is cell-based. To be noted: Homo sapiens; SF-539; concentration causing 50% growth inhibition; read-out: Cytotoxicity (G150 in μM) CNS SF-539. The text has this: (§1) Considering the diversity of cancer in terms of cell type, morphology, growth rate and other cellular characteristics, the U.S. National Cancer Institute (NCI) has developed a “disease-oriented” approach to anticancer activity screening (M. R. Boyd, in “Principle of Practice of Oncology” […]. Rosenberg (Eds.) Vol. 3, PPO Update, No. 10, 1989). This in vitro prescreening system is based on the measurement of anticancer cytotoxicity against human cancer cell line panels consisting of approximately 60 cell lines of major human cancers (including leukemia and slower growing tumor cells such as lung, colon, breast, skin, kidney, etc.) and is referred hereinafter as “COMPARE” screening. An important advantage of the new in vitro screening panels is the opportunity to facilitate identification of compounds that are selectively more cytotoxic to cells of certain types of cancers, thus increasing the ability to select compounds for further study with respect to specific diseases. The indenoisoquinolines were examined for antiproliferative activity against the human cancer cell lines in the National Cancer Institute screen (COMPARE screening), in which the activity of each compound was evaluated with approximately […] different cancer cell lines of diverse tumor origins.

In data set [3] the test system is UACC-62. The experiment in a line: NCI human cancer cell line screen (COMPARE screening), Melanoma UACC-62. To be noted: Homo sapiens; UACC-62; concentration causing 50% growth inhibition; read-out: Cytotoxicity (G150 in μM) Melanoma UACC-62. The format is cell-based.
From the text: as §1

In data set [4] the test system is OVCAR-3. Kind of data set: NCI human cancer cell line screen (COMPARE screening), Ovarian OVCAR-3. Conditions: Homo sapiens; OVCAR-3; concentration causing 50% growth inhibition; read-out: Cytotoxicity (G150 in μM) Ovarian OVCAR-3. In kind it is cell-based.
From the text: as §1

Data set [5] has as its system SN12C. Kind of data set: NCI human cancer cell line screen (COMPARE screening), Renal SN12C. In kind it is cell-based. Conditions: Homo sapiens; SN12C; concentration causing 50% growth inhibition; read-out: Cytotoxicity (G150 in μM) Renal SN12C.
From the text: as §1

Data set [6] relates to DU-145. Kind of data set: NCI human cancer cell line screen (COMPARE screening), Prostate DU-145. In kind it is cell-based. To be noted: Homo sapiens; DU-145; concentration causing 50% growth inhibition; read-out: Cytotoxicity (G150 in μM) Prostate DU-145.
From the text: as §1

The test system of data set [7] is MDA-MB-435. The experiment in a line: NCI human cancer cell line screen (COMPARE screening), Breast MDA-MB-435. The format is cell-based. To be noted: Homo sapiens; MDA-MB-435; concentration causing 50% growth inhibition; read-out: Cytotoxicity (G150 in μM) Breast MDA-MB-435.
From the text: as §1

The test system of data set [8] is approximately 55 different cancer cell lines of diverse tumor origins. Kind of data set: NCI screen mean graph midpoint over all cell lines tested. In kind it is cell-based, human. To be noted: for pIC50: Homo sapiens, average GI50 for all cell lines tested (approximately 55), values outside test range taken as 10^-8 or 10^-4 molar, read-out: MGM (mean graph midpoint); for cytotoxicity (MGM) relative to lead compound 1: comparison in words.
From the text: as §1

The subject of data set [9] is HOP-62. The experiment in a line: NCI human cancer cell line screen (COMPARE screening), Lung HOP-62. The format is cell-based. To be noted: Homo sapiens; HOP-62; concentration causing 50% growth inhibition; read-out: Cytotoxicity (G150 in μM) Lung HOP-62.
From the text: as §1

Data set [10] relates to HCT-116. The experiment in a line: NCI human cancer cell line screen (COMPARE screening), Colon HCT-116. In kind it is cell-based. To be noted: Homo sapiens; HCT-116; concentration causing 50% growth inhibition; read-out: Cytotoxicity (G150 in μM) Colon HCT-116.
From the text: as §1

The structures appear in SMILES notation. pIC50: −log10 of the molar value. A value given as a limit tells only on which side of the number the result lay.

With `CCn1c2c(c3ccccc3c1=O)C(=O)c1ccccc1-2` [Compound 3, 6-Ethyl-5,6-dihydro-5,11-diketo-11H-indeno[1,2-c]isoquinoline], in data set [1], the “Top 1 Cleavage” value turned out to be 0.
On the same count and under the same terms, then `CCCn1c2c(c3ccccc3c1=O)C(=O)c1ccccc1-2` [Compound 4, 5,6-Dihydro-5,11-diketo-6-propyl-11H-indeno[1,2-c]isoquinoline], with 0.
Take `COC(=O)Cn1c2c(c3ccccc3c1=O)C(=O)c1ccccc1-2` [Compound 6, 5,6-Dihydro-5,11-diketo-6-(methoxycarbonylmethyl)-11H-indeno[1,2-c]isoquinoline]: the IC50 in data set [2], in data set [3], in data set [4], in data set [5], in data set [6] and in [7] was more than 100 µM each time. For the same compound, in data set [8], the pIC50 was 4.09. Moreover, in data set [1], the “Top 1 Cleavage” value was 0.
As for `Cn1c2c(c3ccccc3c1=O)C(=O)c1cc3c(cc1-2)OCO3` [Compound 13a, 5,6-Dihydro-5,11-diketo-6-methyl-8,9-methylenedioxy-11H-indeno[1,2-c]isoquinoline], the IC50 was 22 µM in [9]; 54 µM in data set [10]; more than 100 µM in [3]; more than 100 µM in data set [4]; more than 100 µM in data set [5]; more than 100 µM in [6]. Further, the pIC50 in [8] was 4.35. Also, the “Top 1 Cleavage” value in data set [1] is “+ (those compounds having between 20% and 50% of the activity of 1 μM camptothecin)”.
`CCCCn1c2c(c3cc(OC)c(OC)cc3c1=O)C(=O)c1cc3c(cc1-2)OCO3` [Compound 13d, 6-(1-Butyl)-5,6-dihydro-5,11-diketo-2,3-dimethoxy-8,9-methylenedioxy11H-indeno[1,2-c]isoquinoline]: the IC50 is 16 µM in data set [9]; 45 µM in data set [10]; 21 µM in data set [3]; 78 µM in [4]; 16 µM in data set [6]; more than 100 µM in [7]. Besides, in [8], the pIC50 is 4.38. Further, the “Top 1 Cleavage” value in data set [1] was “+ (those compounds having between 20% and 50% of the activity of 1 μM camptothecin)”.
Regarding `COc1cc2c3c(n(Cc4ccccc4)c(=O)c2cc1OC)-c1cc2c(cc1C3=O)OCO2` [Compound 13e, 6-Benzyl-5,6-dihydro-5,11-diketo 2,3-dimethoxy-8,9-methylenedioxy-11H-indeno[1,2-c]isoquinoline], the IC50 in data set [9] is 12 µM; in data set [10], more than 100 µM; in [3], 50 µM; in data set [4], more than 100 µM; in data set [6], 4 µM; in data set [7], more than 100 µM. Further, in data set [8], the pIC50 is 4.38. The “cytotoxicity (MGM) relative to lead compound 1” value in data set [8] was “lower MGM than the lead compound 1”. Moreover, the “Top 1 Cleavage” value in data set [1] is on record as “± (those compounds having less than 20% of the activity of 1 μM camptothecin)”.
As for `COc1cc2c(c(OC)c1OC)C(=O)c1c-2n(C)c(=O)c2ccccc12` [Compound 13j, 5,6-Dihydro-5,11-diketo-6-methyl-8,9,10-trimethoxy-11H-indeno[1,2-c]isoquinoline], the IC50 in [9] was 24 µM; in [2], more than 100 µM; in [4], more than 100 µM; in [5], more than 100 µM; in [6], more than 100 µM. The pIC50 in data set [8] is 4.11. In addition, in [1], the “Top 1 Cleavage” value was found to be 0.
Take `COc1cc2c3c(n(C)c(=O)c2cc1OC)-c1cc(OC)c(OS(C)(=O)=O)cc1C3=O` [Compound 23, 5,6-Dihydro-5,11-diketo-2,3,8-trimethoxy-6-methyl-9[(methylsulfonyl)oxy]-(11H)indeno[1,2-c]isoquinoline]: the “Top 1 Cleavage” value in data set [1] is on record as “± (those compounds having less than 20% of the activity of 1 μM camptothecin)”.
Consider `CCN1C(=O)c2cc(OC)c(OC)cc2[C@@H]2[C@H]1c1cc3c(cc1[C@@H]2O)OCO3` [Compound 24, 6-Ethyl-5,6,12α,13α-tetrahydro-11β-hydroxy-2,3-dimethoxy-8,9-(methylenedioxy)-5-oxo-11H-indeno[1,2-c]isoquinoline], for which the IC50 in [9], in data set [10], in data set [2], in [4], in [5] and in data set [6] was more than 100 µM throughout. For the same compound, the IC50 in [7] was more than 100 µM. The pIC50 in data set [8] was 4.00. Besides, the “Top 1 Cleavage” value in data set [1] turned out to be 0.
As for `CCN1Cc2cc(OC)c(OC)cc2[C@@H]2[C@H]1c1cc3c(cc1[C@@H]2O)OCO3` [Compound 25, 6-Ethyl-5,6,12α,13α-tetrahydro-11β-hydroxy-2,3-dimethoxy-8,9-(methylenedioxy)-11H-indeno[1,2-c]isoquinoline], the IC50 in data set [9] worked out at 30 µM; in data set [10] it was 35 µM; in [2], 50 µM; in data set [4], 24 µM; in data set [5], 26 µM; in data set [6], 41 µM. Moreover, in data set [7], the IC50 was found to be 25 µM. Moreover, in [8], the pIC50 was 4.51. The “Top 1 Cleavage” value in data set [1] came to 0.
As for `CC[n+]1cc2cc(OC)c(OC)cc2c2c1-c1cc3c(cc1C2)OCO3` [Compound 27, 6-Ethyl-2,3-dimethoxy-8,9-(methylenedioxy)-11H-indeno[1,2-c]isoquinolinium Chloride], the IC50 in [9] was found to be 22 µM; in [10], 13 µM; in [2], 5.6 µM; in data set [4], 1.9 µM; in [5], 2.7 µM; in data set [6], 58 µM. Also, the IC50 in data set [7] came to 14 µM. In addition, in data set [8], the pIC50 is 4.89. For the same compound, the “cytotoxicity (MGM) relative to lead compound 1” value in data set [8] was “lower MGM than the lead compound 1”. Moreover, in data set [1], the “Top 1 Cleavage” value was “++ (those compounds having greater than 50% of the activity of 1 μM camptothecin)”.

The values above are taken from patent US6509344B1, “Indenoisoquinolines as antineoplastic agents” (The United States of America as represented by the …, priority 1998, dated 2003).
